# Biological target: T1, P-selectin/PSGL-1 interaction (Homo sapiens, UniProt P16109)
# T1 construct: comprised of the lectin and epidermal growth factor-like (EGF) domains expressed in CHO cells; made in house; host or cells: CHO cells (P-LE)
# T1 sequence (P16109 42-198): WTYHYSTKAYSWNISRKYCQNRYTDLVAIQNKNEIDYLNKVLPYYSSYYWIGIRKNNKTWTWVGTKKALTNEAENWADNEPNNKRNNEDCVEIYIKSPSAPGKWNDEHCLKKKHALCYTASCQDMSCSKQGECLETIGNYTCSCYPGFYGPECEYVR
# Assay: Biacore P-Selectin/PSGL-1 Inhibition Assay (surface plasmon resonance)
# Type: binding
# Conditions: 250 uM test compound, 500 nM P.LE, immobilized PSGL-1 19ek, 10% DMSO, pH 7.4
# Procedure: Surface plasmon resonance assays were performed on a Biacore 3000 instrument (Biacore Inc. Piscataway, N.J.) at 25° C. at a flow rate of 30 μL/minute and each assay consisted of a 60-second equilibration, a 60-μL sample injection (kinject), and a 300-second dissociation.
# A purified, monomeric, truncated form of human PSGL-1, “19ek”, that contained all the necessary P-selectin binding determinants (see Goetz, et al., J. Cell Biol., 1997, 137: 509-519; and Sako, et al., Cell, 1995, 83: 323-331) was biotinylated via amine chemistry (Sulfo-NHS-LC-Biotin, Peirce) at a unique C-terminal lysine residue (see Somers, et al., Cell, 2000, 103: 467-479) and immobilized on a Biacore SA sensor chip (Biacore Inc.), using an HBS-EP buffer (Biacore Inc.), and the target 600-700 RU. The coated chip was re-equilibrated with an HBS-P buffer (Biacore Inc.) to which 1 mM CaCl2 and 1 mM MgCl2 (both from Fisher) were added to ensure sufficient calcium for the calcium-dependent interaction between the receptor and the ligand.
# Test compounds were incubated for 1 hour in a 1.1× Biacore assay buffer. Each solution was centrifuged through a 0.2 µm filter, using a 96-well plate format (Millipore). Glycyrrhizin tri-sodium salt (TCI) was prepared as a positive control in parallel with the test compounds, in the same manner described above.
# A soluble recombinant truncated form of human P-selectin, P-LE, comprised of the lectin and epidermal growth factor-like (EGF) domains expressed in CHO cells (see Somers, et al., Cell, 2000, 103: 467-479) was added to each filtered test compound solution. Final concentrations of reagents were 500 nM P.LE, 250 or 500 μM test compound (depending on structure) or 1 mM glycyrrhizin, 10% DMSO, and 1× Biacore buffer ([…], 150 mM NaCl, 1 mM CaCl2, and 1 mM MgCl2 (all reagents from Fisher)), with a pH of 7.4. Compounds active at 250 μM were titrated to further define activity. Test samples were supplied to the Biacore instrument in a 96-well plate.
# The Biacore raw data file was exported as a text file to an Excel spreadsheet, where the buffer blanks bracketing the samples were averaged for each Biacore instrument flow cell (Fc), and subtracted from the averaged uninhibited P.LE samples and from all the other samples. The reference signal from Fcl (uncoated) was then subtracted from its corresponding active (coated) signal for each injection, a process known as double referencing (see Myszka, J. Mol. Recognit., 1999, 12(5): 279-284). The percent inhibition of binding was calculated by dividing the reference-subtracted inhibited signal by the reference-subtracted uninhibited signal, subtracting this value from 1, and multiplying the resulting value by 100. The replicate percent inhibition values were averaged and expressed as the mean ±standard deviation. The inter-experiment standard deviation of calculated percent inhibitions in the Biacore assay was ±5.
row,inhibition at 250 µM [%],SMILES
1,36,"COc1ccc(C2(c3nc4c(C(F)(F)F)cccc4c(C(=O)O)c3O)CC2)cc1 [Compound 50, 3-hydroxy-2-(1-(4-methoxyphenyl)cyclopropyl)-8-(trifluoromethyl)quinoline-4-carboxylic acid]"
2,64,"O=C(O)c1c(O)c(C2(c3ccc(Br)cc3)CC2)nc2c(C(F)(F)F)cccc12 [Compound 53, 2-(1-(4-bromophenyl)cyclopropyl)-3-hydroxy-8-(trifluoromethyl)quinoline-4-carboxylic acid]"
3,66,"O=C(O)c1c(O)c(C2(c3cccc(Cl)c3)CC2)nc2c(C(F)(F)F)cccc12 [Compound 54, 2-(1-(3-chlorophenyl)cyclopropyl)-3-hydroxy-8-(trifluoromethyl)quinoline-4-carboxylic acid]"
4,57,"O=C(O)c1c(O)c(C2(c3ccccc3Cl)CC2)nc2c(C(F)(F)F)cccc12 [Compound 55, 2-(1-(2-chlorophenyl)cyclopropyl)-3-hydroxy-8-(trifluoromethyl)quinoline-4-carboxylic acid]"
5,≤ 10,"O=C(O)c1c(O)c(C2(c3ccc(Cl)cc3)CCC2)nc2c(C(F)(F)F)cccc12 [Compound 58, 2-(1-(4-chlorophenyl)cyclobutyl)-3-hydroxy-8-(trifluoromethyl)quinoline-4-carboxylic acid]"
6,≤ 10,"O=C(O)c1c(O)c(C2(c3ccsc3)CC2)nc2c(C(F)(F)F)cccc12 [Compound 59, 3-hydroxy-2-(1-(thiophen-3-yl)cyclopropyl)-8-(trifluoromethyl)quinoline-4-carboxylic acid]"
7,15,"O=C(O)c1c(O)c(C2(c3cccs3)CC2)nc2c(C(F)(F)F)cccc12 [Compound 60, 3-hydroxy-2-(1-(thiophen-2-yl)cyclopropyl)-8-(trifluoromethyl)quinoline-4-carboxylic acid]"
8,56,"O=C(O)c1c(O)c(C2(c3ccc(F)cc3)CC2)nc2c(C(F)(F)F)cccc12 [Compound 61, 2-(1-(4-fluorophenyl)cyclopropyl)-3-hydroxy-8-(trifluoromethyl)quinoline-4-carboxylic acid]"

# The next lines start with the compound.
row,SMILES,inhibition at 250 µM [%]
1,"O=C(O)c1c(O)c(C2(c3ccccc3)CC2)nc2ccc(C(O)(C(F)(F)F)C(F)(F)F)cc12 [Compound 48, 6-(1,1,1,3,3,3-hexafluoro-2-hydroxypropan-2-yl)-3-hydroxy-2-(1-phenylcyclopropyl)quinoline-4-carboxylic acid]",≤ 10
2,"O=C(O)c1c(O)c(C2(c3ccccc3)CC2)nc2c(C(O)(C(F)(F)F)C(F)(F)F)cccc12 [Compound 49, 8-(1,1,1,3,3,3-hexafluoro-2-hydroxypropan-2-yl)-3-hydroxy-2-(1-phenylcyclopropyl)quinoline-4-carboxylic acid]",58
3,"COc1ccc(C2(c3nc4c5c(ccc4c(C(=O)O)c3O)CCCC5)CC2)cc1 [Compound 51, 3-hydroxy-2-(1-(4-methoxyphenyl)cyclopropyl)-7,8,9,10-tetrahydrobenzo[h]quinoline-4-carboxylic acid]",38
4,"O=C(O)c1c(O)c(C2(c3ccc(C(F)(F)F)cc3)CC2)nc2c(C(F)(F)F)cccc12 [Compound 52, 3-hydroxy-8-(trifluoromethyl)-2-(1-(4-(trifluoromethyl)phenyl)cyclopropyl)quinoline-4-carboxylic acid]",47
5,O=C(O)c1c(O)c(C2(c3ccc(OC(F)(F)F)cc3)CC2)nc2c(C(F)(F)F)cccc12 [Compound 56],29
6,"O=C(O)c1c(O)c(C2(c3cccc(C(F)(F)F)c3)CC2)nc2c(C(F)(F)F)cccc12 [Compound 57, 3-hydroxy-8-(trifluoromethyl)-2-(1-(3-(trifluoromethyl)phenyl)cyclopropyl)quinoline-4-carboxylic acid]",42
7,"CC(C)c1cccc2c(C(=O)O)c(O)c(C3(c4ccc(F)cc4)CC3)nc12 [Compound 62, 2-(1-(4-fluorophenyl)cyclopropyl)-3-hydroxy-8-isopropylquinoline-4-carboxylic acid]",67

# Source: patent publication US20080255192A1, “Methods and Compositions for Selectin Inhibition” (Wyeth, priority 2007, published 2008)
